From PubChem BioAssay (NCI)
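Protocol summary: plate cells (96-well), add compound at 5 concentrations, incubate 48 h, interpolate endpoints linearly. TGI: concentration producing complete growth inhibition.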

Legend:
Assay in all cases: NCI anticancer screen, dose series, 48 h
786-0 renal = system: 786-0 renal
A498 renal = system: A498 renal
A549 NSCLC = system: A549 NSCLC
ACHN renal = system: ACHN renal
BT-549 breast = system: BT-549 breast
CAKI-1 renal = system: CAKI-1 renal
CCRF-CEM leukemia = system: CCRF-CEM leukemia
COLO 205 colon = system: COLO 205 colon
DU-145 prostate = system: DU-145 prostate
EKVX NSCLC = system: EKVX NSCLC
HCC-2998 colon = system: HCC-2998 colon
HCT-116 colon = system: HCT-116 colon
HCT-15 colon = system: HCT-15 colon
HL-60(TB) leukemia = system: HL-60(TB) leukemia
HOP-62 NSCLC = system: HOP-62 NSCLC
HOP-92 NSCLC = system: HOP-92 NSCLC
HS 578T breast = system: HS 578T breast
HT29 colon = system: HT29 colon
IGROV1 ovarian = system: IGROV1 ovarian
K-562 leukemia = system: K-562 leukemia
KM12 colon = system: KM12 colon
LOX IMVI melanoma = system: LOX IMVI melanoma
M14 melanoma = system: M14 melanoma
MALME-3M melanoma = system: MALME-3M melanoma
MCF7 breast = system: MCF7 breast
MDA-MB-231 breast = system: MDA-MB-231 breast
MDA-MB-435 = system: MDA-MB-435
MDA-N = system: MDA-N
MOLT-4 leukemia = system: MOLT-4 leukemia
NCI-H226 lung = system: NCI-H226 lung
NCI-H23 lung = system: NCI-H23 lung
NCI-H460 lung = system: NCI-H460 lung
NCI-H522 lung = system: NCI-H522 lung
NCI/ADR-RES ovarian = system: NCI/ADR-RES ovarian
OVCAR-3 ovarian = system: OVCAR-3 ovarian
OVCAR-4 ovarian = system: OVCAR-4 ovarian
OVCAR-5 ovarian = system: OVCAR-5 ovarian
OVCAR-8 ovarian = system: OVCAR-8 ovarian
PC-3 prostate = system: PC-3 prostate
RPMI-8226 leukemia = system: RPMI-8226 leukemia
RXF 393 renal = system: RXF 393 renal
SF-268 CNS = system: SF-268 CNS
SF-295 CNS = system: SF-295 CNS
SF-539 CNS = system: SF-539 CNS
SK-MEL-2 melanoma = system: SK-MEL-2 melanoma
SK-MEL-28 melanoma = system: SK-MEL-28 melanoma
SK-MEL-5 melanoma = system: SK-MEL-5 melanoma
SK-OV-3 ovarian = system: SK-OV-3 ovarian
SN12C renal = system: SN12C renal
SNB-19 CNS = system: SNB-19 CNS
SNB-75 CNS = system: SNB-75 CNS
SR leukemia = system: SR leukemia
SW-620 colon = system: SW-620 colon
T-47D breast = system: T-47D breast
TK-10 renal = system: TK-10 renal
U251 CNS = system: U251 CNS
UACC-257 melanoma = system: UACC-257 melanoma
UACC-62 melanoma = system: UACC-62 melanoma
UO-31 renal = system: UO-31 renal

COc1ccc(N=NC(=O)NC(CC(C)C)C(=O)NCC(=O)O)cc1 (centres undefined)
TGI (786-0 renal): > 100 µM
TGI (A498 renal): > 100 µM
TGI (A549 NSCLC): > 61.9 µM
TGI (ACHN renal): > 100 µM
TGI (BT-549 breast): > 100 µM
TGI (CAKI-1 renal): > 100 µM
TGI (CCRF-CEM leukemia): > 100 µM
TGI (COLO 205 colon): 24.5 µM
TGI (DU-145 prostate): > 100 µM
TGI (EKVX NSCLC): > 100 µM
TGI (HCC-2998 colon): > 87.5 µM
TGI (HCT-116 colon): > 100 µM
TGI (HCT-15 colon): > 100 µM
TGI (HL-60(TB) leukemia): > 100 µM
TGI (HOP-62 NSCLC): > 100 µM
TGI (HOP-92 NSCLC): > 100 µM
TGI (HS 578T breast): > 100 µM
TGI (HT29 colon): > 100 µM
TGI (IGROV1 ovarian): > 100 µM
TGI (K-562 leukemia): > 29.1 µM
TGI (KM12 colon): > 100 µM
TGI (LOX IMVI melanoma): > 100 µM
TGI (M14 melanoma): > 100 µM
TGI (MALME-3M melanoma): > 100 µM
TGI (MCF7 breast): > 100 µM
TGI (MDA-MB-231 breast): > 100 µM
TGI (MDA-MB-435): > 100 µM
TGI (MDA-N): > 100 µM
TGI (MOLT-4 leukemia): > 100 µM
TGI (NCI-H226 lung): 99 µM
TGI (NCI-H23 lung): > 100 µM
TGI (NCI-H460 lung): > 58.7 µM
TGI (NCI-H522 lung): > 100 µM
TGI (NCI/ADR-RES ovarian): > 100 µM
TGI (OVCAR-3 ovarian): > 100 µM
TGI (OVCAR-4 ovarian): > 100 µM
TGI (OVCAR-5 ovarian): > 100 µM
TGI (OVCAR-8 ovarian): > 100 µM
TGI (PC-3 prostate): > 100 µM
TGI (RPMI-8226 leukemia): > 100 µM
TGI (RXF 393 renal): > 100 µM
TGI (SF-268 CNS): > 100 µM
TGI (SF-295 CNS): > 100 µM
TGI (SF-539 CNS): 29.7 µM
TGI (SK-MEL-2 melanoma): > 100 µM
TGI (SK-MEL-28 melanoma): > 100 µM
TGI (SK-MEL-5 melanoma): > 56.2 µM
TGI (SK-OV-3 ovarian): > 100 µM
TGI (SN12C renal): > 100 µM
TGI (SNB-19 CNS): > 100 µM
TGI (SNB-75 CNS): > 100 µM
TGI (SR leukemia): > 100 µM
TGI (SW-620 colon): > 100 µM
TGI (T-47D breast): > 84 µM
TGI (TK-10 renal): > 100 µM
TGI (U251 CNS): > 100 µM
TGI (UACC-257 melanoma): > 100 µM
TGI (UACC-62 melanoma): > 100 µM
TGI (UO-31 renal): 10.7 µM
